Test results taken from PMC8037810, “L-Glutaminase Synthesis by Marine Halomonas meridiana Isolated from the Red Sea and Its Efficiency against Colorectal Cancer Cell Lines” (Molecules, 2021).

Tested on: T1, L-glutaminase
T1 construct: gene glsA; native enzyme purified from culture supernatant (ammonium sulfate, Sephadex G-200); about 57 kDa by SDS-PAGE
Assay: Nesslerization of released ammonia; Lineweaver-Burk plot
Type: biochemical, Vreelandella aquamarina
Conditions: Tris buffer, 37 °C; pH of kinetic assay not stated (general assay pH 7, optimum pH 8.0); assayed L-glutamine 0.01-0.8 M, far above the printed Km

Km: 12.2 µM
Structure (SMILES): NC(=O)CC[C@H](N)C(=O)O [L-glutamine]
